# Reference: patent US4980377A, “1-(aminophenyl)-2-aminopropanone derivatives” (Laboratoire L. Lafon, priority 1984, dated 1990)
# Entries after “also recorded” stand apart in the source; their conditions may differ.
# How the values were obtained:
# mice [1] = experiment: Overall behavior and reactivities in mice; type: in vivo, mouse; details: i.p.
# Procedure: (§1) In the neuropsychopharmacological study which follows, a solution of CRL 41 153 in distilled water (pH 1.5) was administered intraperitoneally in a volume of 20 ml/kg to male mice and 5 ml/kg to male rats.
# (§2) Groups of three animals are observed before and then 0.25 hour, 0.50 hour, 1 hour, 2 hours, 3 hours and 24 hours after the administration of CRL 41 153.
# rats [2] = experiment: Overall behavior and reactivities in rats; type: in vivo, rat; details: i.p.
# Procedure: as §1, §2
# mice [3] = experiment: Interaction with barbital; type: in vivo, mouse; details: i.p., barbital 220 mg/kg
# Procedure: Half an hour after the administration of CRL 41 153, groups of 10 mice receive an intraperitoneal injection of barbital (220 mg/kg).
# mice [4] = experiment: Interaction with oxotremorine; type: in vivo, mouse; details: i.p.
# Procedure: CRL 41 153 is administered to groups of 6 mice 0.5 hour before the intraperitoneal injection of 0.5 mg/kg of oxotremorine.
# rats [5] = experiment: Investigation of stereotype movements; type: in vivo, rat; details: i.p., compared with amphetamine 2 mg/kg
# Procedure: Immediately after the intraperitoneal administration of CRL 41 194 or amphetamine, groups of 6 rats are placed in Plexiglass boxes (20×10×10 cm). The stereotype movements are graded from 0 to 3 every 10 minutes until they wear off.
# Groups of 6 rats receive an intraperitoneal injection of CRL 41 213, distilled water or amphetamine immediately before being placed in small cages, where their stereotype behavior is graded every 10 minutes until the effect wears off.
# mice [6] = experiment: Behavioral despair; type: in vivo, mouse; details: forcibly immersed mice, i.p.
# From the text: Half an hour after they have received CRL 41 153, groups of 6 mice are placed in a beaker filled with water to a height of 6 cm. The total period of immobility between the 2nd and 6th minutes following immersion is noted.
# mice [7] = experiment: Intergroup aggressiveness; type: in vivo, mouse; details: i.p.
# Procedure: After they have stayed for 3 weeks in the two halves of a cage divided by an opaque partition, groups of 3 mice receive CRL 41 153. Half an hour later, the two groups from the same cage are brought together by removal of the partition, and the number of fights which occur in 10 minutes is noted.
# male mice = experiment: Acute toxicity by intraperitoneal administration; type: in vivo, mouse; details: i.p.
# Procedure: as §1
# [8] = tested on: gravid White New Zealand female rabbits; experiment: Teratogenicity in gravid White New Zealand rabbits; type: in vivo, rabbit; details: dose 0 mg/kg [sic]
# How it was run: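 Fetuses harvested by cesarean on gestation day 29 were scored for number and for any malformation (limb blockade, anury, tail or skull defects, exencephaly).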
# mice [9] = experiment: Four plate test, traction and electric shock; type: in vivo, mouse; details: i.p.
# Procedure: The test is performed on groups of 10 mice 30 minutes after the administration of CRL 41 153.
# mice [10] = experiment: Motility reduced by hypoxic aggression; type: in vivo, mouse; details: i.p.
# Procedure: Half an hour after they have received CRL 41 153, the mice (10 per dose, 20 control animals) are subjected to acute hypobaric anoxia [pressure reduction of 600 mm Hg (i.e. about 8×10^4 Pa) in 90 seconds; release of vacuum in 45 seconds] and are then placed in an actimeter, where their motility is recorded for 10 minutes.
# rats [11] = experiment: Interaction with apomorphine in rats; type: in vivo, rat; details: i.p.
# Procedure: CRL 41 153 is administered to groups of 6 rats 0.5 hour before the subcutaneous injection of 0.5 mg/kg of apomorphine.
# CNS = experiment: Neuropsychopharmacological profile as a whole; type: in vivo, mice and rats
# Procedure: as §1
# mice [12] = experiment: Interaction with apomorphine in mice; type: in vivo, mouse; details: i.p.
# Procedure: Groups of 6 mice receive CRL 41 153 0.5 hour before the subcutaneous injection of 1 or 16 mg/kg of apomorphine.
# mice [13] = experiment: Motility reduced by habituation to the enclosure; type: in vivo, mouse; details: i.p.
# Procedure: After they have stayed In the actimeters for 18 hours, (he mice (6 per dose, 12 control animals) receive CRL 41 153. They are immediately returned to their respective enclosures and, half an hour later, their motility is recorded for 30 minutes.
# mice [14] = experiment: Asphyxiant anoxia (gallamine triiodoethylate); type: in vivo, mouse; details: i.p., curarizing agent
# Procedure: Groups of 10 mice receive CRL 41 153 half an hour before the intraperitoneal administration of 32 mg/kg of gallamine triiodoethylate (reference curarizing agent).
# [15] = pH of solutions in distilled water; type: physicochemical
# Procedure: The neuropsychopharmacological study was undertaken according to the procedures described above for CRL 41 153, CRL 41 213 being adminstered intraperitoneally, in solution in distilled water, in a volume of 20 ml/kg to male mice and a volume of 5 ml/kg to male rats, and the pH of the injected solution varying with the concentration of CRL 41 213 according to the data given in Table II below.
# mice [16] = experiment: Interaction with reserpine; type: in vivo, mouse; details: i.p.
# Procedure: Four hours after the intraperitoneal injection of 2.5 mg/kg of reserpine, groups of 6 mice receive CRL 41 153.
# rats [17] = experiment: Interaction with amphetamine; type: in vivo, rat; details: i.p.
# Procedure: Amphetamine (2 mg/kg) is injected intraperitoneally into groups of 6 rats 30 minutes after the administration of CRL 41 153. […] 4 mg/kg and 16 mg/kg, CRL 41 153 potentiates the intensity and duration of the stereotypies induced by amphetamine.
# mice [18] = experiment: Spontaneous motility; type: in vivo, mouse; details: i.p.
# Procedure: 0.5 hour after they have received CRL 41 153, the mice (6 per dose, 12 control animals) are placed in an actimeter, where their motility is recorded for 30 minutes.
compound,measurement,setting,value
CCCNC(C)C(=O)c1ccc(N)cc1 (centres unmarked) [CRL 41 213],Observed symptoms,mice [1]; 1 mg/kg,moderate sedation 0.5 hour after administration
same,Observed symptoms,mice [1]; 4 mg/kg,moderate excitation 0.5 hour after administration; also recorded: piloerection for 0.25 hour
same,Observed symptoms,mice [1]; 16 mg/kg,"excitation for more than 3 hours with the presence of stereotypies for about 2 hours as from the 1st hour following administration; also recorded: an increase in the fear reaction, the reactivity to touch and the aggressiveness for more than 3 hour; also recorded: salivation, lacrimation and exophthalmos for 1 hour; also recorded: polypnea"
same,Observed symptoms,mice [1]; 64 mg/kg,clonic convulsions for 0.5 hour; also recorded: excitation for more than 3 hours with the presence of stereotypies; also recorded: an increase in the fear reaction and the reactivity to touch from 2 hours to more than 3 hours; also recorded: mydriasis for more than 3 hours; also recorded: polypnea
same,Observed symptoms,rats [2]; 0.5 mg/kg,mydriasis for 1 hour
same,Observed symptoms,rats [2]; 2 mg/kg,excitation with the presence of stereotypies; also recorded: an increase in the fear reaction and in the reactivity to touch and noise for 2 hours
same,Observed symptoms,rats [2]; 8 mg/kg,excitation with the presence of stereotypies; also recorded: an increase in the fear reaction and in the reactivity to touch and noise for 3 hours; also recorded: mydriasis for more than 3 hours
same,Observed symptoms,rats [2]; 32 mg/kg,excitation with the presence of very intense stereotypies; also recorded: an increase in the fear reaction and in the reactivity to touch and noise for 3 hours; also recorded: exophthalmos from 0.5 hour to 3 hours; also recorded: mydriasis for 3 hours; also recorded: polypnea
same,Duration of the sleep induced by barbital,mice [3],as from a dose of 0.5 mg/kg. CRL 41 213 reduces the duration of the sleep induced by barbital; also recorded: Total antagonism is obtained for doses equal to or greater than 4 mg/kg
same,Effect on hypothermic action of oxotremorine,mice [4],"As from a dose of 4 mg/kg, CRL 41 213 opposes the hypothermic action of oxotremorine; also recorded: At the weakest dose studied (1 mg/kg), this effect is scarcely detectable"
same,Effect on trembling induced by oxotremorine,mice [4],"At the strongest doses (16 and 64 mg/kg), CRL 41 213 reduces the intensity of the trembling"
same,Action on the peripheral cholinergic symptoms,mice [4]; oxotremorine,does not change the signs of peripheral cholinergic stimulation produced by oxotremorine
same,Stereotype movements,rats [5],"As from a dose of 2 mg/kg, CRL 41 213 causes the appearance of stereotype movements in rats, the intensity of which is substantially comparable to that obtained with 2 mg/kg of amphetamine; also recorded: Increasing the doses leads to an increase in the intensity and duration of these stereotypies"
same,Period of immobility due to despair,mice [6],"as from a dose of 0.5 mg/kg, CRL 41 213 distinctly reduces the period of immobility; also recorded: Total antagonism is obtained at doses of 4 mg/kg, 16 mg/kg and 64 mg/kg"
same,Number of fights / intergroup aggressiveness,mice [7],does not modify the intergroup aggressiveness of mice
same,LD0 (maximum non-lethal dose),male mice,greater than or equal to 128 mg/kg
same,LD100,male mice,less than or equal to 256 mg/kg
same,"Affected foetuses, number",[8],1
same,Total foetuses (live),[8],84
same,"Affected foetuses, %",[8]; normal limit 1.5%,1.19%
same,Effect on convulsant effects of electric shock,mice [9],opposes the convulsant effects of electric shock 116 to 64 mg/kg)
same,Motor incapacity (traction),mice [9],causes motor incapacity (64 mg/kg)
same,Number of punished passes in the four plate test,mice [9],"At doses of 1 mg/kg, 4 mg/kg and 16 mg/kg, CRL 41 213 causes an increase in the number of punished passes; also recorded: This increase is not present at the strongest dose used (64 mg/kg)"
same,Motor recovery of mice after hypobaric hypoxia,mice [10],"As from 1 mg/kg, CRL 41 213 causes a distinct improvement in the motor recovery"
same,Effect on stereotypies induced by apomorphine,rats [11],"as from a dose of 2 mg/kg, CRL 41 213 causes an increase in the index of the stereotypes induced by apomorphine; also recorded: This increase is large in terms of intensity and duration at doses of 8 mg/kg and 32 mg/kg"
same,Anticonvulsant effects (overall),CNS; conclusion of the tests,"at high but non-toxic doses, CRL 41 213 causes the appearance of clonic convulsions but opposes the convulsant effects of electric shock"
same,Antidepressant effects (overall),CNS; conclusion of the tests,"possessing antidepressant, stimulant and arousing properties"
same,Stimulant effects (overall),CNS; conclusion of the tests,"possessing antidepressant, stimulant and arousing properties"
same,α-adrenergic stimulant effects (overall),CNS; conclusion of the tests,effects reflecting peripheral α-adrenergic stimulation
same,"Peripheral α-adrenergic signs (mydriasis, salivation, lacrimation, exophthalmos)",CNS; species and dose not stated,"mydriasis; also recorded: presence of salivation, lacrimation and exophthalmos"
same,Effect on hypothermia induced by apomorphine,mice [12],"at doses of 1 mg/kg, 4 mg/kg, 16 mg/kg and 64 mg/kg, CRL 41 213 strongly opposes the hypothermia induced by apomorphine in mice"
same,Effect on righting behavior and stereotypies induced by apomorphine,mice [12],"At the strongest dose studied (64 mg/kg), CRL 41 213 moderately reduces the righting behavior without modifying the stereotypies induced by apomorphine"
same,Motor activity of mice accustomed to their enclosure,mice [13],"at doses of 4 mg/kg, 16 mg/kg and 64 mg/kg, CRL 41 213 causes a resumption in the motor activity of mice accustomed to their enclosure"
same,Time taken for convulsions to occur,mice [14],does not modify (he time taken for convulsions to occur
same,Time taken for death to occur,mice [14],"at a dose of 64 mg/kg, it moderately increases the time taken for death to occur"
same,pH,[15]; 0.2 g/liter in distilled water,4.0
same,pH,[15]; 0.4 g/liter in distilled water,3.5
same,pH,[15]; 0.8 g/liter in distilled water,3.0
same,pH,[15]; 1.6 g/liter in distilled water,2.5
same,pH,[15]; 3.2 g/liter in distilled water,2.0
same,pH,[15]; 25 g/liter in distilled water,1.5
same,pH,[15]; 50 g/liter in distilled water,1.0
same,pH,[15]; ≤0.1 g/liter in distilled water,5.0
same,Effect on hypothermia induced by reserpine,mice [16],"at doses of 1 mg/kg and 4 mg/kg, CRL 41 213 opposes the hypothermic action of reserpine; also recorded: at a weaker dose (0.25 mg/kg), no effect is detected"
same,Effect on ptosis induced by reserpine,mice [16],"at doses of 1 mg/kg and 4 mg/kg, CRL 41 213 opposes the hypothermic action of reserpine as well as the ptosis induced by reserpine; also recorded: at a weaker dose (0.25 mg/kg), no effect is detected"
same,Effect on stereotypies induced by amphetamine,rats [17],"as from a dose of 2 mg/kg, CRL 41 213 potentiates the stereotypies induced by amphetamine"
same,Spontaneous motor activity,mice [18],"At doses of 1 mg/kg, 4 mg/kg and 16 mg/kg, CRL 41 213 causes a substantial increase in the spontaneous motor activity of mice; also recorded: At the strongest dose studied (64 mg/kg), CRL 41 213 causes clonic convulsions and stereotypies"
